Experimental data taken from EP3750528A1, “COMPOSITIONS FOR TREATING DYSTROPHIES AND MYOTONIA” (Nexien Biopharma, Inc., priority 2019, dated 2020).

Legend:
dystrophic mdx mice = conditions: injection; mostly via activation of TRPV1 and TRPA1; cited from earlier work
myotonia and myalgia = assay: Previous treatments for myotonia and myalgia (case history)
[1] = Patient 2 (DM2), suspended also for risk of cardiac arrhythmias
[2] = Patient 6 (CLCN1-congenital myotonia)

Compound | myotonia under previous treatment (myotonia and myalgia; [1]) | myotonia under previous treatment (myotonia and myalgia; [2]) | myalgia under previous treatment (myotonia and myalgia; Patient 2 (DM2)) | other results
C=C(C)[C@@H]1CCC(C)=C[C@H]1c1c(O)cc(CCCCC)cc1O [CBD, cannabidiol] | – | – | – | effect in dystrophic mdx mice (dystrophic mdx mice): promoted myotube formation and reduced inflammation
NC(=O)N1c2ccccc2C=Cc2ccccc21 [carbamazepine] | inefficacy | no relevant improvement of myotonia | – | –
O=C(NCC1CCCCN1)c1cc(OCC(F)(F)F)ccc1OCC(F)(F)F (stereo not shown) [flecainid] | – | no relevant improvement of myotonia | – | –
CC(C)Cc1ccc(C(C)C(=O)O)cc1 (stereo not shown) [ibuprofen] | – | – | unsuccessfully treated | –
Nc1nnc(-c2cccc(Cl)c2Cl)c(N)n1 [lamotrigine] | – | no relevant improvement of myotonia | – | –
COc1ccccc1OCC(O)COC(N)=O (stereo not shown) [methocarbamol] | – | – | unsuccessfully treated | –
Cc1cccc(C)c1OCC(C)N (stereo not shown) [mexiletine] | inefficacy | improved the myotonia | – | drug-related side effect of previous treatment (myotonia and myalgia; Patient 6, resolved on drug discontinuation): severe major depression
CC(C)C[C@H](CN)CC(=O)O [pregabalin] | inefficacy | – | unsuccessfully treated | –
Cc1ccc(C(=O)C(C)CN2CCCCC2)cc1 (stereo not shown) [tolperisone] | – | no relevant improvement of myotonia | – | –
